Experiments:
[1] = test system: HBV viral load, AD38 cells; assay: Activity of test compounds on viral production from AD38 cells (viral load by quantitative PCR of the core sequence in supernatant); assay type: cell-based, Hepatitis B virus; details: Hepatitis B virus, 144 h, 10 μM compound, 6 days at 37° C., vs DMSO control wells; Table 6; read-out: AD38 Viral Load (CpAM/DMSO %) at 10 μM
Experimental: (§1) AD38 cells were then re-suspended with 10 mL of treatment medium and counted. Wells of a collagen coated 96-well NUNC microtiter plate were seeded at 50,000/well in 180 μL of treatment medium, and 20 μL of either 10% DMSO (Control) or a 10× solution of test compound in 10% DMSO in treatment media was added for a final compound concentration 1, 3, or 10 μM (1.0% final [DMSO]) and plates were incubated for 6 days at 37° C.
Subsequently viral load production was assayed by quantitative PCR of the core sequence. Briefly, 5 μL of clarified supernatant was added to a PCR reaction mixture that contained forward primers HBV-f 5′-CTGTGCCTTGGGTGGCTTT-3′, Reverse primers HBV-r 5′-[…]-3′ and Fluorescent TaqMan™ Probes HBV-probe 5′-FAM/AGCTCCAAA/ZEN/[…]/3IABkFQ-3′ in Quanta Biosciences PerfeCTa® qPCR Toughmix®, and was subsequently on an Applied Biosystems VIIA7 in a final volume of 20 μL. The PCR mixture was incubated at 45° C. for 5 minutes, then 95° C. for 10 min, followed by 40 cycles of 10 seconds at 95° C. and 20 seconds at 60° C. Viral load was quantitated against known standards by using ViiA™ 7 Software. Viral load in the supernatant from wells with treated cells were compared against viral load in supernatant from DMSO control wells (≥3 per plate).

[2] = test system: AD38 cells; assay: AD38 viability normalized to DMSO control; assay type: cell-based; details: 10 μM compound, vs DMSO control; Table 6
Experimental: as §1

| Structure (SMILES) | activity at 10 µM [1] | AD38 Viability Normalized Result (CPAM/DMSO %) at 10 μM [2] |
| --- | --- | --- |
| Cc1ccc(Nc2cc(C)nc(N3CCN(S(=O)(=O)c4cccnc4)CC3)n2)cc1 [Compound 1133] | 35% | 108% |
| Cc1ccc(Nc2cc(C)nc(N3CCN(S(=O)(=O)c4c[nH]cn4)CC3)n2)cc1 [Compound 1134] | 32% | 123% |
| Cc1ccc(Nc2cc(C)nc(N3CCN(S(=O)(=O)c4cccc5ccccc45)CC3)n2)cc1 [Compound 1135] | 16% | 107% |
| Cc1ccc(Nc2cc(C)nc(N3CCN(S(=O)(=O)c4ccc(Oc5ccccc5)cc4)CC3)n2)cc1 [Compound 1136] | 24% | 113% |
| COc1ccc(S(=O)(=O)N2CCN(c3nc(Nc4ccc(C)cc4)cc(N(C)C)n3)CC2)cc1 [Compound 1143] | 8% | 107% |
| COc1ccc(S(=O)(=O)N2CCN(c3nc(Nc4ccc(C)cc4)cc(N4CCCC4)n3)CC2)cc1 [Compound 1144] | 12% | 100% |
| Cc1ccc(Nc2cc(C)nc(N3CCN(S(=O)(=O)c4cccs4)CC3)n2)cc1 [Compound 1146] | 15% | 106% |
| COc1ccc(S(=O)(=O)N2CCN(c3cc(C)nc(Nc4ccc(C)cc4)n3)CC2)cc1 [Compound 1150] | 4% | 89% |
| COc1cccc(S(=O)(=O)N2CCN(c3cc(C)nc(Nc4ccc(C)cc4)n3)CC2)c1 [Compound 1151] | 1% | 73% |
| COc1ccc(S(=O)(=O)N2CCN(c3nc(C)cc(Oc4ccc(C)cc4)n3)CC2)cc1 [Compound 1152] | 20% | 107% |
| Cc1ccc(Nc2cc(C)nc(N3CCN(S(=O)(=O)c4ccccc4C)CC3)n2)cc1 [Compound 1153] | 21% | 109% |
| COc1ccc(S(=O)(=O)N2CCN(c3nc(Nc4ccc(C)cc4)cc(OC)n3)CC2)cc1 [Compound 1157] | 35% | 96% |
| COc1ccc(S(=O)(=O)N2CCN(c3cccc(Nc4ccc(C)cc4)n3)CC2)cc1 [Compound 1158] | 51% | 92% |
| COc1ccc(S(=O)(=O)N2CCN(c3nc(C)cc(Sc4ccc(C)cc4)n3)CC2)cc1 [Compound 1159] | 81% | 95% |
| COc1ccc(S(=O)(=O)N2CCN(c3nc(C)cc(S(=O)(=O)c4ccc(C)cc4)n3)CC2)cc1 [Compound 1160, 2-(4-((4-methoxyphenyl)sulfonyl)piperazin-1-yl)-4-methyl-6-tosylpyrimidine] | 60% | 110% |
| Cc1ccc(Nc2cc(C)nc(N3CCN(S(=O)(=O)c4ccc5[nH]c(=O)[nH]c5c4)CC3)n2)cc1 [Compound 1167] | 36% | 108% |
| COc1cccc(S(=O)(=O)N2CCN(c3cccc(Nc4ccc(C)cc4)n3)CC2)c1 [Compound 1168] | 51% | 100% |
| COc1ccc(S(=O)(=O)N2CCN(c3cc(C)cc(Nc4ccc(C)cc4)n3)CC2)cc1 [Compound 1172] | 21% | 107% |
| COc1cccc(S(=O)(=O)N2CCN(c3cc(C)cc(Nc4ccc(C)cc4)n3)CC2)c1 [Compound 1173] | 9% | 105% |
| COc1ccc(S(=O)(=O)N2CCN(c3nc(Nc4ccc(C)cc4)cc(N4CCOCC4)n3)CC2)cc1 [Compound 1179] | 45% | 103% |
| COc1ccc(S(=O)(=O)N2CCN(c3nc(C)cc(Nc4cncnc4)n3)CC2)cc1 [Compound 1186] | 76% | 106% |
| COc1ccc(S(=O)(=O)N2CCN(c3nc(C)cc(Nc4ccc5ccccc5c4)n3)CC2)cc1 [Compound 1188] | 52% | 105% |

| Structure (SMILES) | activity at 10 µM [1] | AD38 Viability Normalized Result (CPAM/DMSO %) at 10 μM [2] |
| --- | --- | --- |
| COc1ccc(S(=O)(=O)N2CCN(c3nc(Nc4ccc(C)cc4)cc(N4CCCCC4)n3)CC2)cc1 [Compound 1190] | 72% | 83% |
| COc1ccc(S(=O)(=O)N2CCN(c3nc(C)cc(Nc4ccc(C)nc4)n3)CC2)cc1 [Compound 1194] | 64% | 109% |
| COc1ccc(S(=O)(=O)N2CCN(c3nc(C)cc(Nc4ccc(C)cn4)n3)CC2)cc1 [Compound 1200] | 81% | 98% |
| COc1ccc(S(=O)(=O)N2CCN(c3nc(C)cc(Nc4ccc(-c5ccccc5)cc4)n3)CC2)cc1 [Compound 1201] | 90% | 101% |
| COc1ccc(S(=O)(=O)N2CCN(c3nc(Nc4ccc(C)cc4)cc(N4CCNCC4)n3)CC2)cc1 [Compound 1202, 2-(4-((4-methoxyphenyl)sulfonyl)piperazin-1-yl)-6-(piperazin-1-yl)-N-(p-tolyl) pyrimidin-4-amine] | 51% | 106% |
| COc1ccc(S(=O)(=O)N2CCN(c3nc(Nc4ccc(C)cc4)cc(N4CCN(C)CC4)n3)CC2)cc1 [Compound 1207] | 83% | 0% |
| COc1ccc(S(=O)(=O)N2CCN(c3nc(Nc4ccc(C)cc4)cc(N4CCCC4=O)n3)CC2)cc1 [Compound 1212] | 77% | 94% |
| COc1ccc(S(=O)(=O)N2CCN(c3nc(Nc4ccc(C)cc4)cc(N4CCCCC4=O)n3)CC2)cc1 [Compound 1213] | 40% | 94% |
| COc1ccc(S(=O)(=O)N2CCN(c3nc(C)cc(Nc4ccccn4)n3)CC2)cc1 [Compound 1215] | 93% | 89% |
| COc1ccc(S(=O)(=O)N2CCN(c3nc(Nc4ccc(C)cc4)cc(-n4ccnc4)n3)CC2)cc1 [Compound 1229] | 13% | 92% |
| Cc1ccc(S(=O)(=O)N2CCN(c3nc(Nc4ccc(F)cc4)cc(-n4cnnc4)n3)CC2)cc1 [Compound 1316] | 25% | – |
| Cc1cc(Nc2ccc(C#N)cc2)nc(N2CCN(S(=O)(=O)c3ccc(F)cc3)CC2)n1 [Compound 1319] | 5% | – |
| N#Cc1ccc(Nc2cc(C(F)(F)F)nc(N3CCN(S(=O)(=O)c4ccc(C(F)(F)F)cc4)CC3)n2)cc1 [Compound 1320] | 18% | – |
| Cc1ccc(S(=O)(=O)N2CCN(c3nc(C)cc(Nc4ccc(C#N)cc4)n3)CC2)cc1 [Compound 1321] | 1% | – |
| Cc1cc(Nc2ccc(C#N)cc2)nc(N2CCN(S(=O)(=O)c3ccc(C(F)(F)F)cc3)CC2)n1 [Compound 1322] | 35% | – |
| Cc1ccc(S(=O)(=O)N2CCN(c3nc(Nc4ccc(C#N)cc4)cc(C(F)(F)F)n3)CC2)cc1 [Compound 1324] | 1% | – |
| N#Cc1ccc(Nc2cc(C(F)(F)F)nc(N3CCN(S(=O)(=O)c4ccccc4)CC3)n2)cc1 [Compound 1325] | 1% | – |
| N#Cc1ccc(Nc2cc(C(F)(F)F)nc(N3CCN(S(=O)(=O)c4ccc(F)cc4)CC3)n2)cc1 [Compound 1326] | 2% | – |
| Cc1cc(Nc2ccc(C#N)cc2)nc(N2CCN(S(=O)(=O)c3ccccc3)CC2)n1 [Compound 1327] | 1% | – |
| Cc1cc(Nc2ccc(C#N)cc2)nc(N2CCN(S(=O)(=O)c3ccc(O)cc3)CC2)n1 [Compound 1328] | 9% | – |
| COc1ccc(S(=O)(=O)N2CCN(c3nc(Nc4ccc(C#N)cc4)cc(C(F)(F)F)n3)CC2)cc1 [Compound 1329] | 1% | – |
